{"source": "PubChem BioAssay (NCI)", "test_in_all_cases": "NCI tumour cell line growth inhibition, 48 h", "key": {"NCI-H226 lung": {"system": "NCI-H226 lung"}, "NCI-H23 lung": {"system": "NCI-H23 lung"}, "NCI-H460 lung": {"system": "NCI-H460 lung"}, "NCI-H522 lung": {"system": "NCI-H522 lung"}, "NCI/ADR-RES ovarian": {"system": "NCI/ADR-RES ovarian"}, "OVCAR-3 ovarian": {"system": "OVCAR-3 ovarian"}, "OVCAR-4 ovarian": {"system": "OVCAR-4 ovarian"}, "OVCAR-5 ovarian": {"system": "OVCAR-5 ovarian"}, "OVCAR-8 ovarian": {"system": "OVCAR-8 ovarian"}, "PC-3 prostate": {"system": "PC-3 prostate"}, "RPMI-8226 leukemia": {"system": "RPMI-8226 leukemia"}, "RXF 393 renal": {"system": "RXF 393 renal"}, "SF-268 CNS": {"system": "SF-268 CNS"}, "SF-295 CNS": {"system": "SF-295 CNS"}, "SF-539 CNS": {"system": "SF-539 CNS"}, "SK-MEL-2 melanoma": {"system": "SK-MEL-2 melanoma"}, "SK-MEL-28 melanoma": {"system": "SK-MEL-28 melanoma"}, "SK-MEL-5 melanoma": {"system": "SK-MEL-5 melanoma"}, "SK-OV-3 ovarian": {"system": "SK-OV-3 ovarian"}, "SN12C renal": {"system": "SN12C renal"}, "SNB-19 CNS": {"system": "SNB-19 CNS"}, "SR leukemia": {"system": "SR leukemia"}, "T-47D breast": {"system": "T-47D breast"}, "TK-10 renal": {"system": "TK-10 renal"}, "U251 CNS": {"system": "U251 CNS"}, "UACC-257 melanoma": {"system": "UACC-257 melanoma"}, "UACC-62 melanoma": {"system": "UACC-62 melanoma"}, "UO-31 renal": {"system": "UO-31 renal"}}, "note": "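Interpolation was linear, between the two tested concentrations surrounding the appropriate level; five concentrations were tested over 48 hours in 96-well plates. At the GI50, growth is halved. TGI: total growth inhibition.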", "data": [{"smiles": "COc1ccc(C(=O)/C=C/c2cccc(Br)c2)cc1S(N)(=O)=O", "values": [{"measurement": "GI50", "setting": "NCI-H226 lung", "value": 2.81, "unit": "µM"}, {"measurement": "TGI", "setting": "NCI-H226 lung", "value": 11.4, "unit": "µM"}, {"measurement": "GI50", "setting": "NCI-H23 lung", "value": 1.77, "unit": "µM"}, {"measurement": "TGI", "setting": "NCI-H23 lung", "value": 3.43, "unit": "µM"}, {"measurement": "GI50", "setting": "NCI-H460 lung", "value": 3.16, "unit": "µM"}, {"measurement": "TGI", "setting": "NCI-H460 lung", "value": 11.4, "unit": "µM"}, {"measurement": "GI50", "setting": "NCI-H522 lung", "value": 1.63, "unit": "µM"}, {"measurement": "TGI", "setting": "NCI-H522 lung", "value": 3.23, "unit": "µM"}, {"measurement": "GI50", "setting": "NCI/ADR-RES ovarian", "value": 2.21, "unit": "µM"}, {"measurement": "TGI", "setting": "NCI/ADR-RES ovarian", "value": 7.13, "unit": "µM"}, {"measurement": "GI50", "setting": "OVCAR-3 ovarian", "value": 1.29, "unit": "µM"}, {"measurement": "TGI", "setting": "OVCAR-3 ovarian", "value": 3.17, "unit": "µM"}, {"measurement": "GI50", "setting": "OVCAR-4 ovarian", "value": 4.08, "unit": "µM"}, {"measurement": "TGI", "setting": "OVCAR-4 ovarian", "value": 17.3, "unit": "µM"}, {"measurement": "GI50", "setting": "OVCAR-5 ovarian", "value": 1.74, "unit": "µM"}, {"measurement": "TGI", "setting": "OVCAR-5 ovarian", "value": 4.25, "unit": "µM"}, {"measurement": "GI50", "setting": "OVCAR-8 ovarian", "value": 2.28, "unit": "µM"}, {"measurement": "TGI", "setting": "OVCAR-8 ovarian", "value": 10.6, "unit": "µM"}, {"measurement": "GI50", "setting": "PC-3 prostate", "value": 2.02, "unit": "µM"}, {"measurement": "TGI", "setting": "PC-3 prostate", "value": 4.93, "unit": "µM"}, {"measurement": "GI50", "setting": "RPMI-8226 leukemia", "value": 2.05, "unit": "µM"}, {"measurement": "TGI", "setting": "RPMI-8226 leukemia", "value": 5.52, "unit": "µM"}, {"measurement": "GI50", "setting": "RXF 393 renal", "value": 1.6, "unit": "µM"}, {"measurement": "TGI", "setting": "RXF 393 renal", "value": 3.2, "unit": "µM"}, {"measurement": "GI50", "setting": "SF-268 CNS", "value": 3.02, "unit": "µM"}, {"measurement": "TGI", "setting": "SF-268 CNS", "value": 12.7, "unit": "µM"}, {"measurement": "GI50", "setting": "SF-295 CNS", "value": 2.09, "unit": "µM"}, {"measurement": "TGI", "setting": "SF-295 CNS", "value": 6.44, "unit": "µM"}, {"measurement": "GI50", "setting": "SF-539 CNS", "value": 1.69, "unit": "µM"}, {"measurement": "TGI", "setting": "SF-539 CNS", "value": 3.44, "unit": "µM"}, {"measurement": "GI50", "setting": "SK-MEL-2 melanoma", "value": 8.73, "unit": "µM"}, {"measurement": "TGI", "setting": "SK-MEL-2 melanoma", "value": 21.9, "unit": "µM"}, {"measurement": "GI50", "setting": "SK-MEL-28 melanoma", "value": 2.15, "unit": "µM"}, {"measurement": "TGI", "setting": "SK-MEL-28 melanoma", "value": 5.46, "unit": "µM"}, {"measurement": "GI50", "setting": "SK-MEL-5 melanoma", "value": 2.31, "unit": "µM"}, {"measurement": "TGI", "setting": "SK-MEL-5 melanoma", "value": 6.38, "unit": "µM"}, {"measurement": "GI50", "setting": "SK-OV-3 ovarian", "value": 4.06, "unit": "µM"}, {"measurement": "TGI", "setting": "SK-OV-3 ovarian", "value": 15, "unit": "µM"}, {"measurement": "GI50", "setting": "SN12C renal", "value": 1.44, "unit": "µM"}, {"measurement": "TGI", "setting": "SN12C renal", "value": 3.48, "unit": "µM"}, {"measurement": "GI50", "setting": "SNB-19 CNS", "value": 2.91, "unit": "µM"}, {"measurement": "TGI", "setting": "SNB-19 CNS", "value": 12, "unit": "µM"}, {"measurement": "GI50", "setting": "SR leukemia", "value": 0.732, "unit": "µM"}, {"measurement": "TGI", "setting": "SR leukemia", "value": 3.54, "unit": "µM"}, {"measurement": "GI50", "setting": "T-47D breast", "value": 2.13, "unit": "µM"}, {"measurement": "TGI", "setting": "T-47D breast", "value": 6.01, "unit": "µM"}, {"measurement": "GI50", "setting": "TK-10 renal", "value": 2.23, "unit": "µM"}, {"measurement": "TGI", "setting": "TK-10 renal", "value": 11.9, "unit": "µM"}, {"measurement": "GI50", "setting": "U251 CNS", "value": 1.34, "unit": "µM"}, {"measurement": "TGI", "setting": "U251 CNS", "value": 2.69, "unit": "µM"}, {"measurement": "GI50", "setting": "UACC-257 melanoma", "value": 3.27, "unit": "µM"}, {"measurement": "TGI", "setting": "UACC-257 melanoma", "value": 14.5, "unit": "µM"}, {"measurement": "GI50", "setting": "UACC-62 melanoma", "value": 1.68, "unit": "µM"}, {"measurement": "TGI", "setting": "UACC-62 melanoma", "value": 3.89, "unit": "µM"}, {"measurement": "GI50", "setting": "UO-31 renal", "value": 1.29, "unit": "µM"}, {"measurement": "TGI", "setting": "UO-31 renal", "value": 2.7, "unit": "µM"}]}]}
